Experimental data published in ChEMBL document CHEMBL6074641, “Polypharmacological Drug Design Guided by Integrating Phenotypic and Restricted Fragment Docking Strategies” (J Med Chem, 2024).
The source made the active and inactive calls. The rule behind the calls is not given here.

Key:
[1] = test system: Mus musculus; experiment: Anti-alzheimer activity against 5 month old APP/PS1 transgenic mouse model assessed as increase in searching frequency towards annulus at 10 mg/kg, po administered 4 times per week for 4 weeks; assay type: functional, organism-based
[2] = test system: Mus musculus; experiment: Downregulation of RIPK1 phosphorylation in 3xTg mouse hippocampus at 2 to 10 mg/kg, po by immunohistochemistry analysis; assay type: functional, organism-based; details: dose 2-10 mg/kg
[3] = Metabolic stability in human liver microsomes assessed as half-life at 1 uM measured upto 60 mins in presence of NADPH and UDPGA by LC-MS/MS analysis; assay type: ADME, Microsome
[4] = AUC(0 to t) in C57BL/6 mouse brain at 10 mg/kg, po measured upto 24 hrs by LC-MS/MS analysis; assay type: ADME, organism-based
[5] = target: hERG (KCNH2) (Homo sapiens, UniProt Q12809); experiment: Inhibition of human ERG expressed in CHO cells at 20 uM by Qpatch clamp method relative to control; assay type: toxicity, cell-based; details: CHO cells that express hERG
[6] = test system: Microglia; experiment: Anti-necroptosis activity in LPS/zVAD stimulated mouse primary microglia overexpressed with RIPK1 assessed as reversal of mitochondrial swelling by TEM analysis; assay type: functional, cell-based
[7] = Anti-necroptosis activity in LPS/zVAD stimulated mouse primary microglia assessed as protection of microglia cells at 100 nM; assay type: functional
[8] = test system: Mus musculus; experiment: Anti-alzheimer activity against 5 month old APP/PS1 transgenic mouse model assessed as […] at 10 mg/kg, po administered 4 times per week for 4 weeks measured after 2 days; assay type: functional, organism-based; details: time 30.0 day
[9] = test system: Mus musculus; experiment: Anti-alzheimer activity against 8 month old 3xTg mouse model assessed as increase in beta-III tubulin expression at 10 mg/kg, po; assay type: functional, organism-based
[10] = test system: Mus musculus; experiment: Anti-alzheimer activity in 8 month old 3xTg mouse model assessed as reversal of transcriptomic changes in Plxnd1 at 10 mg/kg, po; assay type: functional, organism-based
[11] = test system: BV-2; experiment: Anti-inflammatory activity against LPS/zVAD treated mouse BV-2 cells assessed as decrease in TNFalpha release at 100 nM by ELISA; assay type: functional, cell-based
[12] = test system: Mus musculus; experiment: Downregulation of MAP4K4 phosphorylation in 3xTg mouse hippocampus at 2 to 10 mg/kg, po by immunohistochemistry analysis; assay type: functional, organism-based; details: dose 2-10 mg/kg
[13] = test system: Mus musculus; experiment: Anti-alzheimer activity against 8 month old 3xTg mouse model assessed as reduction in Tau aggregation at 2 to 10 mg/kg, po; assay type: functional, organism-based; details: dose 2-10 mg/kg
[14] = test system: Mus musculus; experiment: Downregulation of ALK phosphorylation in 3xTg mouse hippocampus at 2 to 10 mg/kg, po by immunohistochemistry analysis; assay type: functional, organism-based; details: dose 2-10 mg/kg
[15] = Tmax in C57BL/6 mouse brain at 10 mg/kg, po measured upto 24 hrs by LC-MS/MS analysis; assay type: ADME, organism-based
[16] = test system: Mus musculus; experiment: Anti-alzheimer activity in 8 month old 3xTg mouse model assessed as reversal of transcriptomic changes in Hba-a1 at 10 mg/kg, po; assay type: functional, organism-based
[17] = test system: Microglia; experiment: Anti-necroptosis activity in LPS/zVAD stimulated mouse primary microglia assessed as reversal of translucent cytoplasm by TEM analysis; assay type: functional, cell-based
[18] = AUC(0 to t) in C57BL/6 mouse plasma at 10 mg/kg, po measured upto 24 hrs by LC-MS/MS analysis; assay type: ADME, organism-based
[19] = test system: Mus musculus; experiment: Anti-alzheimer activity against 8 month old 3xTg mouse model assessed as reduction in p-Tau181 content at 2 to 10 mg/kg, po; assay type: functional, organism-based; details: dose 2-10 mg/kg
[20] = test system: Mus musculus; experiment: Anti-alzheimer activity against 8 month old 3xTg mouse model assessed as decrease in restlessness at 2 to 10 mg/kg, po administered 4 times per week for 4 weeks; assay type: functional, organism-based; details: dose 2-10 mg/kg
[21] = target: Mitogen-activated protein kinase kinase kinase kinase 4 (Homo sapiens, UniProt O95819); experiment: Inhibition of MAP4K4 (unknown origin) at 1 uM
[22] = test system: Microglia; experiment: Anti-necroptosis activity in LPS/zVAD stimulated mouse primary microglia transfected with flag-tagged RIPK1 plasmid assessed as protection of microglia cells at 100 nM; assay type: functional, cell-based
[23] = target: ALK tyrosine kinase receptor (Homo sapiens, UniProt Q9UM73); experiment: Inhibition of recombinant ALK (1060 to end residues) (unknown origin) expressed in Escherichia coli […] using IGF1Rtide as substrate preincubated for 15 mins followed by substrate and ATP addition and measured after 90 mins by ADP-Glo luminescence […] assay
[24] = target: ALK tyrosine kinase receptor (Mus musculus) (UniProt P97793); experiment: Inhibition of ALK activation in mouse BV-2 cells by Western blotting analysis; assay type: cell-based; details: dose 4-100 nM
[25] = test system: BV-2; experiment: Anti-necroptosis activity in mouse BV-2 cells assessed as reduction in p65 expression at 100 nM by confocal microscopic analysis; assay type: functional, cell-based
[26] = test system: Mus musculus; experiment: Anti-alzheimer activity against 5 month old APP/PS1 transgenic mouse model assessed as improved cognitive ability at 10 mg/kg, po administered 4 times per week for 4 weeks; assay type: functional, organism-based
[27] = test system: Mus musculus; experiment: Anti-alzheimer activity against 5 month old APP/PS1 transgenic mouse model assessed as […] at 2 mg/kg, po administered 4 times per week for 4 weeks; assay type: functional, organism-based
[28] = test system: Microglia; experiment: Anti-necroptosis activity in LPS/zVAD stimulated mouse primary microglia overexpressed with MAP4K4 assessed as reversal of translucent cytoplasm by TEM analysis; assay type: functional, cell-based
[29] = Half-life in C57BL/6 mouse plasma at 10 mg/kg, po measured upto 24 hrs by LC-MS/MS analysis; assay type: ADME, organism-based
[30] = test system: Mus musculus; experiment: Anti-alzheimer activity against 8 month old 3xTg mouse model assessed as increase in searching frequency towards annulus at 10 mg/kg, po administered 4 times per week for 4 weeks; assay type: functional, organism-based
[31] = test system: Microglia; experiment: Anti-necroptosis activity in LPS/zVAD stimulated mouse primary microglia overexpressed with RIPK1 assessed as reversal of severe membrane disruption by TEM analysis; assay type: functional, cell-based
[32] = test system: Microglia; experiment: Anti-necroptosis activity in LPS/zVAD stimulated mouse primary microglia overexpressed with ALK assessed as reversal of severe membrane disruption by TEM analysis; assay type: functional, cell-based
[33] = target: Cytochrome P450 1A2 (Homo sapiens, UniProt P05177); experiment: Inhibition of CYP1A2 (unknown origin) using phenacetin as substrate incubated for 10 mins in presence of NADPH by LC-MS/MS analysis; assay type: ADME
[34] = Tmax in C57BL/6 mouse plasma at 10 mg/kg, po measured upto 24 hrs by LC-MS/MS analysis; assay type: ADME, organism-based
[35] = test system: BV-2; experiment: Cytotoxicity against mouse BV-2 cells at 10 uM; assay type: toxicity, cell-based; details: bv-2, 10 µM
[36] = test system: Mus musculus; experiment: Anti-alzheimer activity against 5 month old APP/PS1 transgenic mouse model assessed as decrease in restlessness at 2 to 10 mg/kg, po administered 4 times per week for 4 weeks; assay type: functional, organism-based; details: dose 2-10 mg/kg
[37] = test system: Mus musculus; experiment: Anti-alzheimer activity against 8 month old 3xTg mouse model assessed as improved learning ability at 2 to 10 mg/kg, po administered 4 times per week for 4 weeks; assay type: functional, organism-based; details: dose 2-10 mg/kg
[38] = Cmax in C57BL/6 mouse plasma at 10 mg/kg, po measured upto 24 hrs by LC-MS/MS analysis; assay type: ADME, organism-based
[39] = target: Cytochrome P450 3A4 (Homo sapiens, UniProt P08684); experiment: Inhibition of CYP3A4 (unknown origin) using midazolam as substrate incubated for 10 mins in presence of NADPH by LC-MS/MS analysis; assay type: ADME

ALK tyrosine kinase receptor, sequence (Q9UM73 whole entry): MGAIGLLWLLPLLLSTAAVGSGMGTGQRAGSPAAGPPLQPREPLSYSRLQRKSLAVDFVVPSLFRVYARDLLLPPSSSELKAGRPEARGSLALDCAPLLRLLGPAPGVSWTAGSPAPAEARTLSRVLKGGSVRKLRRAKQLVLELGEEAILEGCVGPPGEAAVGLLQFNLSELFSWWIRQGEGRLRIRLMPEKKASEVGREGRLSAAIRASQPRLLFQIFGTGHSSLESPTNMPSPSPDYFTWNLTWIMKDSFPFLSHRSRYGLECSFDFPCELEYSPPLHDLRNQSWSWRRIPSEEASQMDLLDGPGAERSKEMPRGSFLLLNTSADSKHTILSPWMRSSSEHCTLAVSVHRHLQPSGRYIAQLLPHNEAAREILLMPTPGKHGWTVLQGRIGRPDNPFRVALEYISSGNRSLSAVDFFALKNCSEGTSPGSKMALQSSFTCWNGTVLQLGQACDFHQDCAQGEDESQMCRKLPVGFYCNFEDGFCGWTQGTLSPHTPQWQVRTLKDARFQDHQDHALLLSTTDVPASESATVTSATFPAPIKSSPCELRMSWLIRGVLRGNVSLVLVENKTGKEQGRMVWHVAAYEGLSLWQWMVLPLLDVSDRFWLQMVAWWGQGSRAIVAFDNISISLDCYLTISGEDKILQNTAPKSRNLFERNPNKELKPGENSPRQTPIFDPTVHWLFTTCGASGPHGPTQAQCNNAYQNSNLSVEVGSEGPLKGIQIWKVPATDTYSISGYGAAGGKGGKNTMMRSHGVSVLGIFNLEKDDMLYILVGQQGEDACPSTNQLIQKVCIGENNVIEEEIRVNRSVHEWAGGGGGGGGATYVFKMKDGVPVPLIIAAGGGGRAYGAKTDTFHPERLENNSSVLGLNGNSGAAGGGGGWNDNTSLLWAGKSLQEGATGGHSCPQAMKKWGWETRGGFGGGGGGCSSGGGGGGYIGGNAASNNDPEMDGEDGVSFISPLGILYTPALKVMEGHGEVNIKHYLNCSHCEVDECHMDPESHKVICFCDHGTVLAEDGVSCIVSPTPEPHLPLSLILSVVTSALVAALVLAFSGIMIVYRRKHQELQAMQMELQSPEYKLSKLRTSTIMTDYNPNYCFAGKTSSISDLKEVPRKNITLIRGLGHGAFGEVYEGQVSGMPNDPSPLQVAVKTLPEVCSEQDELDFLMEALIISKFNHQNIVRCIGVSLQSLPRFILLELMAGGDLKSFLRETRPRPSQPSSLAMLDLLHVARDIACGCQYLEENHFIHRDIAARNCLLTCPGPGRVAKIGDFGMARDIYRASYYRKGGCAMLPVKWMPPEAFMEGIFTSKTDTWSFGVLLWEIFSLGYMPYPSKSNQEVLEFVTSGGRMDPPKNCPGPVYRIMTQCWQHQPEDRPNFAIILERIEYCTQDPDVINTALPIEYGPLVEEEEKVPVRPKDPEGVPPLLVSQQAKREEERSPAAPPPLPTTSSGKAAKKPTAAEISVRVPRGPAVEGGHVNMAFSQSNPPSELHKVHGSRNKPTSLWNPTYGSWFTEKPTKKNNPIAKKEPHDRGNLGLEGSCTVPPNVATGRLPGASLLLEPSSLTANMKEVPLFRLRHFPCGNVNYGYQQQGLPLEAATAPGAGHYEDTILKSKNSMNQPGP
ALK tyrosine kinase receptor (Mus musculus), sequence (P97793 whole entry): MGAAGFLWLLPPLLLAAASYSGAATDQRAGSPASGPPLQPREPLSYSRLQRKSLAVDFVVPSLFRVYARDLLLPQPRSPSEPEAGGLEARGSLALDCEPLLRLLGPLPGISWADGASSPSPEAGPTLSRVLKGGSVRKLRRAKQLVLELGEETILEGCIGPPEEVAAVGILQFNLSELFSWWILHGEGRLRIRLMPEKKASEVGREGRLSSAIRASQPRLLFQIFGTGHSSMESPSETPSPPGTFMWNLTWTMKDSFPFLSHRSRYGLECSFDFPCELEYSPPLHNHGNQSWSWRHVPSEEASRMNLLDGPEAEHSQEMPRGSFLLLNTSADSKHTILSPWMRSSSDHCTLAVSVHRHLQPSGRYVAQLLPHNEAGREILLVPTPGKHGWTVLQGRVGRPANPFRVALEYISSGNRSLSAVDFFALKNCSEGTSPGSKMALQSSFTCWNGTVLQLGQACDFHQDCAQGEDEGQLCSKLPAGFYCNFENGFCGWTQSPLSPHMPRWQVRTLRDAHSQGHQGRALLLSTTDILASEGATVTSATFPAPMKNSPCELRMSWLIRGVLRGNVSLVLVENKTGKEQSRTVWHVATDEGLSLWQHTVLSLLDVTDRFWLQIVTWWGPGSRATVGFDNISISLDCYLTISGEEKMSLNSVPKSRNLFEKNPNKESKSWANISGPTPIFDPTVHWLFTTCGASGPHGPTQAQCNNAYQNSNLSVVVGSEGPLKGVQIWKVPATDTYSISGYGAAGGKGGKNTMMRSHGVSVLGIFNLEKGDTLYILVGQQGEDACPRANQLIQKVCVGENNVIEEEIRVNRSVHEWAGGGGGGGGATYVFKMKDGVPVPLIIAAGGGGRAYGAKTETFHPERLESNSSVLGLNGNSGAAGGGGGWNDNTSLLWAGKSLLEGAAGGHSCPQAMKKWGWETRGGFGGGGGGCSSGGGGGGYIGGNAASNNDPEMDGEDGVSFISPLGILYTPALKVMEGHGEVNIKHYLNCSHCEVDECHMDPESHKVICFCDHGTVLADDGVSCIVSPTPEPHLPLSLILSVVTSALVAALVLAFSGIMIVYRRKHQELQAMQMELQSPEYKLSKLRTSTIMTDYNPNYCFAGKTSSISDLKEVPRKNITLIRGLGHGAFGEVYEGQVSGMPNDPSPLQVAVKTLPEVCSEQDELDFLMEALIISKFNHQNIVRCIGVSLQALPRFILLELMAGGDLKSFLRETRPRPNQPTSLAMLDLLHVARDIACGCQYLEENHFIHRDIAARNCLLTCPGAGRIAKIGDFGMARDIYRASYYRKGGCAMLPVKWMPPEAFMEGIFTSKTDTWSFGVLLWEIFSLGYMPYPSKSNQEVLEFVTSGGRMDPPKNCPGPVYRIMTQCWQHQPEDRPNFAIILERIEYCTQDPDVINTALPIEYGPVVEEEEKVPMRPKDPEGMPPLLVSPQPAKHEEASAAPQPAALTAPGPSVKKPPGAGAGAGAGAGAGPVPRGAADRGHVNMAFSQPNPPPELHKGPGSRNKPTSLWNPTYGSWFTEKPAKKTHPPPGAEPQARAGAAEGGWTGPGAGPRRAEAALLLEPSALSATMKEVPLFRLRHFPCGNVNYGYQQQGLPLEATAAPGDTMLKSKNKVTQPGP
hERG (KCNH2), sequence (Q12809 whole entry): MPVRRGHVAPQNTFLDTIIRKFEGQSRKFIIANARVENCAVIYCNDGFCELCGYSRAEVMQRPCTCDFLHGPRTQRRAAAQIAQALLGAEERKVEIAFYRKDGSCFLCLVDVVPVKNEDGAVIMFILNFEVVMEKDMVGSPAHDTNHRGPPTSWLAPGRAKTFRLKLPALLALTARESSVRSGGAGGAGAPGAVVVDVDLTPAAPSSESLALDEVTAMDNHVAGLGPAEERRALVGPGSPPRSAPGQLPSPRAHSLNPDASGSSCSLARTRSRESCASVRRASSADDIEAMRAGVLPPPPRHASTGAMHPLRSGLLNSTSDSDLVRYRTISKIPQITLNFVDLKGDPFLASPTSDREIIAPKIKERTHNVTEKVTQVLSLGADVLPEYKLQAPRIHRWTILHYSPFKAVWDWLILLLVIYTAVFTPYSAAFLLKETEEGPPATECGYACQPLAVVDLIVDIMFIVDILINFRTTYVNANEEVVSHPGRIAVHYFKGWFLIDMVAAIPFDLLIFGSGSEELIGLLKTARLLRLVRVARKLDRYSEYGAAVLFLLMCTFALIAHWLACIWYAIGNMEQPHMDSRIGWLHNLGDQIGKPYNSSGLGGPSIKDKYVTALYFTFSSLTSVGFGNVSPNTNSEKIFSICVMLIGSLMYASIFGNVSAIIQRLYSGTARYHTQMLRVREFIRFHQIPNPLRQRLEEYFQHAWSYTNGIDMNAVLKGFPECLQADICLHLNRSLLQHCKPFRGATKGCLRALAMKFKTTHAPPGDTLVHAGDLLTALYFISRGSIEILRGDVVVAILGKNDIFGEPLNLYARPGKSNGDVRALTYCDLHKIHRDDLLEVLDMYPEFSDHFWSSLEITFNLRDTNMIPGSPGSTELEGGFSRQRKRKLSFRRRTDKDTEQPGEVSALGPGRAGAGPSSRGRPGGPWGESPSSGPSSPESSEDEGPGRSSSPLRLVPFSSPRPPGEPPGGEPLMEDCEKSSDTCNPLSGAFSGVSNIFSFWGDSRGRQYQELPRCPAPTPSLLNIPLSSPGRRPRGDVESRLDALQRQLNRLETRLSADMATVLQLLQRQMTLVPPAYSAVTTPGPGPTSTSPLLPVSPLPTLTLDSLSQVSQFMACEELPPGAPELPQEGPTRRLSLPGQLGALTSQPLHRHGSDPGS
Cytochrome P450 1A2, sequence (P05177 whole entry): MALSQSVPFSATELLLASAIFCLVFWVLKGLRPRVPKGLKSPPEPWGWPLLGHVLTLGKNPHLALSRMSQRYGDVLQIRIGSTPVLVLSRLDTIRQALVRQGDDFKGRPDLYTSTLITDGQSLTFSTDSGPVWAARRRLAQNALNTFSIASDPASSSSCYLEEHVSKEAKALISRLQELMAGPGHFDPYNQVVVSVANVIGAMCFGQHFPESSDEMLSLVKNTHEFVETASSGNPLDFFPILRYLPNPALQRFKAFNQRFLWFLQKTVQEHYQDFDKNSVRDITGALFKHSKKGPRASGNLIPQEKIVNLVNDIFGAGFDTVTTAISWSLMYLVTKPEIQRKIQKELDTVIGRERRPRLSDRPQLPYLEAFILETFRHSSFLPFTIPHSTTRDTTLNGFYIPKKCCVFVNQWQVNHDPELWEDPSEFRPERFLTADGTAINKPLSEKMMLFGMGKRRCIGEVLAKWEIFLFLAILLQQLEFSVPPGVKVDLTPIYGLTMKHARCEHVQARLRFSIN

half-life at 1 µM [3]: 3.22 h | AUC(0-t) at 24 h [4]: 2970 ng·h/mL | Tmax [15]: 5.97 h | AUC(0-t) at 24 h [18]: 10900 ng·h/mL | inhibition [21]: Active | inhibition [24]: Dose-dependent-effect | half-life [29]: 13.3 h | IC50 [33]: > 10 µM | Tmax [34]: 2.93 h | Cmax [38]: 1180 ng/mL | IC50 [39]: > 10 µM
SMILES: Cc1cc(F)cc(Nc2ncc(Nc3ccc(SC(F)(F)F)cc3)cc2C(N)=O)c1
Activity [1]: Active | Activity [2]: Active; Activity More Potent Than Nec-1 | inhibition at 20 µM [5]: 11.3% | Activity [6]: inactive | Activity [7]: 100% | Activity [8]: Active | Activity [9]: Active | Activity [10]: Active | Activity [11]: Active | Activity [12]: Active; Activity More Potent Than Nec-1 | Activity [13]: Active | Activity [14]: Active; Activity More Potent Than Nec-1 | Activity [16]: Active | Activity [17]: Active | Activity [19]: Active | Activity [20]: Active | Activity [22]: inactive | IC50 [23]: 0.62 µM | Activity [25]: Active | Activity [26]: Active | Activity [27]: Active | Activity [28]: inactive | Activity [30]: Active | Activity [31]: inactive | Activity [32]: inactive | Activity [35]: Toxic | Activity [36]: Active | Activity [37]: Active
